Source: PubChem BioAssay AID256 (DTP/NCI, 2004)
Where “and” joins values, the source holds several entries; their conditions need not be identical. Equal entries are not always repeated. Toxic doses and inconclusive results are not listed.

Tested on: CD2F1 mice, L1210 leukemia ip, survival T/C
Experiment: NCI In Vivo Anticancer Drug Screen. Data for tumor model L1210 Leukemia (intraperitoneal) in CD2F1 (CDF1) mice
Details: higher = longer survival
Summary of the method: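 Ratio T/C, where T is the treated-group value and C the vehicle-dosed control value, from mice implanted with a transplantable tumor.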

[1] = endpoint: mean survival time, dose: 25.0 mg/kg/injection, schedule: Q01DX009 (ip), vehicle: water
[2] = endpoint: mean survival time, dose: 100.0 mg/kg/injection, schedule: Q01DX001 (ip), vehicle: saline with Tween-80
[3] = endpoint: mean survival time, dose: 100.0 mg/kg/injection, schedule: Q01DX009 (ip), vehicle: saline with Tween-80
[4] = endpoint: mean survival time, dose: 200.0 mg/kg/injection, schedule: Q01DX001 (ip), vehicle: saline with Tween-80
[5] = endpoint: mean survival time, dose: 200.0 mg/kg/injection, schedule: Q01DX009 (ip), vehicle: saline with Tween-80
[6] = endpoint: mean survival time, dose: 400.0 mg/kg/injection, schedule: Q01DX001 (ip), vehicle: saline with Tween-80
[7] = endpoint: mean survival time, dose: 400.0 mg/kg/injection, schedule: Q01DX009 (ip), vehicle: saline with Tween-80
[8] = endpoint: mean survival time, dose: 100.0 mg/kg/injection, schedule: Q01DX001 (ip), vehicle: saline

SMILES: C[n+]1c(-c2cccc(-c3ccccc3)c2)c2cc([N+](=O)[O-])ccc2c2ccccc21
- T/C (endpoint: mean survival time, dose: 1.56 mg/kg/injection, schedule: Q01DX009 (ip), vehicle: Klucel (hydroxypropylcellulose) (HPC)): 93 % of control
- T/C (endpoint: mean survival time, dose: 3.13 mg/kg/injection, schedule: Q01DX009 (ip), vehicle: Klucel (hydroxypropylcellulose) (HPC)): 94 % of control
- T/C (endpoint: mean survival time, dose: 6.25 mg/kg/injection, schedule: Q01DX009 (ip), vehicle: Klucel (hydroxypropylcellulose) (HPC)): 98 % of control
- T/C (endpoint: mean survival time, dose: 12.5 mg/kg/injection, schedule: Q01DX009 (ip), vehicle: Klucel (hydroxypropylcellulose) (HPC)): 92 % of control
- T/C (endpoint: mean survival time, dose: 25.0 mg/kg/injection, schedule: Q01DX009 (ip), vehicle: Klucel (hydroxypropylcellulose) (HPC)): 96 % of control
- T/C [1]: 97 % of control

SMILES: OC1CCCCCCCCCCC1C(O)(C(F)(F)F)C(F)(F)F (configuration not stated)
- T/C [2]: 93 % of control and 89 % of control
- T/C [3]: 86 % of control
- T/C [4]: 89 % of control
- T/C [5]: 91 % of control
- T/C [6]: 91 % of control
- T/C [7]: 97 % of control

SMILES: [Cl][Pt]([Cl])[Cl].[NH-]C1CN2CCC1CC2 (configuration not stated)
- T/C (endpoint: mean survival time, dose: 2.5 mg/kg/injection, schedule: Q04DX003 (ip), vehicle: saline with Tween-80): 119 % of control
- T/C (endpoint: mean survival time, dose: 5.0 mg/kg/injection, schedule: Q04DX003 (ip), vehicle: saline with Tween-80): 122 % of control

SMILES: [Cl][Pt+2][Cl].[NH-]CC1([NH-])CCCCC1
- T/C (endpoint: mean survival time, dose: 0.19 mg/kg/injection, schedule: Q04DX003 (ip), vehicle: saline with Tween-80): 107 % of control
- T/C (endpoint: mean survival time, dose: 0.39 mg/kg/injection, schedule: Q04DX003 (ip), vehicle: saline with Tween-80): 107 % of control
- T/C (endpoint: mean survival time, dose: 0.79 mg/kg/injection, schedule: Q04DX003 (ip), vehicle: saline with Tween-80): 113 % of control
- T/C (endpoint: mean survival time, dose: 1.56 mg/kg/injection, schedule: Q04DX003 (ip), vehicle: saline with Tween-80): 114 % of control
- T/C (endpoint: mean survival time, dose: 3.13 mg/kg/injection, schedule: Q04DX003 (ip), vehicle: saline): 202 % of control
- T/C (endpoint: mean survival time, dose: 6.25 mg/kg/injection, schedule: Q04DX003 (ip), vehicle: saline): 184 % of control
- T/C (endpoint: mean survival time, dose: 12.5 mg/kg/injection, schedule: Q04DX003 (ip), vehicle: saline with Tween-80): 244 % of control

SMILES: Cc1cc(N(CCCOS(C)(=O)=O)CCCOS(C)(=O)=O)ccc1C=Nc1ccc(-c2csc(COc3ccccc3)n2)cc1
- T/C [2]: 89 % of control
- T/C [3]: 90 % of control
- T/C [4]: 91 % of control
- T/C [5]: 86 % of control
- T/C [6]: 88 % of control

SMILES: O=C(Nc1ccc(Cl)cc1)c1cc(Br)ccc1O
- T/C (endpoint: mean survival time, dose: 100.0 mg/kg/injection, schedule: Q04DX003 (ip), vehicle: saline with Tween-80): 92 % of control
- T/C (endpoint: mean survival time, dose: 200.0 mg/kg/injection, schedule: Q04DX003 (ip), vehicle: saline with Tween-80): 88 % of control
- T/C (endpoint: mean survival time, dose: 400.0 mg/kg/injection, schedule: Q04DX003 (ip), vehicle: saline with Tween-80): 92 % of control

SMILES: COc1cc[n+](C)cc1
- T/C (endpoint: mean survival time, dose: 100.0 mg/kg/injection, schedule: Q04DX002 (ip), vehicle: saline): 100 % of control
- T/C (endpoint: mean survival time, dose: 200.0 mg/kg/injection, schedule: Q04DX002 (ip), vehicle: saline): 91 % of control
- T/C (endpoint: mean survival time, dose: 400.0 mg/kg/injection, schedule: Q04DX002 (ip), vehicle: saline): 95 % of control

SMILES: CCCCC(=O)c1cc(O)ccc1O
- T/C [8]: 107 % of control
- T/C (endpoint: mean survival time, dose: 200.0 mg/kg/injection, schedule: Q01DX001 (ip), vehicle: saline): 98 % of control
- T/C (endpoint: mean survival time, dose: 400.0 mg/kg/injection, schedule: Q01DX001 (ip), vehicle: saline): 92 % of control

SMILES: O=C(O)c1c(Cl)c(Cl)c(Cl)c(Cl)c1C(=O)O
- T/C (endpoint: mean survival time, dose: 100.0 mg/kg/injection, schedule: Q04DX002 (ip), vehicle: saline with Tween-80): 97 % of control
- T/C (endpoint: mean survival time, dose: 200.0 mg/kg/injection, schedule: Q04DX002 (ip), vehicle: saline with Tween-80): 101 % of control
- T/C (endpoint: mean survival time, dose: 400.0 mg/kg/injection, schedule: Q04DX002 (ip), vehicle: saline with Tween-80): 105 % of control

SMILES: C=C(Br)CNC(=O)CCC
- T/C (endpoint: mean survival time, dose: 2.5 mg/kg/injection, schedule: Q01DX009 (ip), vehicle: saline with Tween-80): 107 % of control
- T/C (endpoint: mean survival time, dose: 5.0 mg/kg/injection, schedule: Q01DX009 (ip), vehicle: saline with Tween-80): 106 % of control
- T/C (endpoint: mean survival time, dose: 10.0 mg/kg/injection, schedule: Q01DX009 (ip), vehicle: saline with Tween-80): 102 % of control

SMILES: Nc1ccc(CCCCc2ccccc2)cc1
- T/C (endpoint: mean survival time, dose: 100.0 mg/kg/injection, schedule: Q04DX003 (ip), vehicle: acetone): 107 % of control

SMILES: CCOc1ccncc1[N+](=O)[O-]
- T/C (endpoint: mean survival time, dose: 100.0 mg/kg/injection, schedule: Q01DX009 (ip), vehicle: saline sonified): 96 % of control
- T/C (endpoint: mean survival time, dose: 100.0 mg/kg/injection, schedule: Q04DX003 (ip), vehicle: saline sonified): 95 % of control
- T/C (endpoint: mean survival time, dose: 200.0 mg/kg/injection, schedule: Q04DX003 (ip), vehicle: saline sonified): 95 % of control
- T/C (endpoint: mean survival time, dose: 400.0 mg/kg/injection, schedule: Q04DX003 (ip), vehicle: saline sonified): 86 % of control

SMILES: NC(=O)C1(Cl)CC2C=CC1C2 (configuration not stated)
- T/C (endpoint: mean survival time, dose: 100.0 mg/kg/injection, schedule: Q04DX003 (ip), vehicle: saline): 94 % of control

SMILES: COc1cccc2c1C(=O)c1c(O)c3c(c(O)c1C2=O)C[C@@](O)(C(O)CO)C[C@@H]3OC1CC(N(Cc2ccccc2)Cc2ccccc2)C(O)C(C)O1 (some centres not stated)
- T/C (endpoint: median survival time, dose: 6.25 mg/kg/injection, schedule: Q01DX009 (ip), vehicle: water): 122 % of control

SMILES: CC([NH-])Cc1ccccc1.CC([NH-])Cc1ccccc1.[Cl][Pt+2][Cl] (configuration not stated)
- T/C (endpoint: mean survival time, dose: 3.13 mg/kg/injection, schedule: Q04DX003 (ip), vehicle: distilled water + Tween-80): 96 % of control
- T/C (endpoint: mean survival time, dose: 6.25 mg/kg/injection, schedule: Q04DX003 (ip), vehicle: distilled water + Tween-80): 96 % of control
- T/C (endpoint: mean survival time, dose: 12.5 mg/kg/injection, schedule: Q04DX003 (ip), vehicle: distilled water + Tween-80): 96 % of control
- T/C (endpoint: mean survival time, dose: 25.0 mg/kg/injection, schedule: Q04DX003 (ip), vehicle: distilled water + Tween-80): 86 % of control
- T/C (endpoint: mean survival time, dose: 50.0 mg/kg/injection, schedule: Q04DX003 (ip), vehicle: distilled water + Tween-80): 86 % of control
- T/C (endpoint: mean survival time, dose: 100.0 mg/kg/injection, schedule: Q04DX003 (ip), vehicle: distilled water + Tween-80): 96 % of control
- T/C (endpoint: mean survival time, dose: 200.0 mg/kg/injection, schedule: Q04DX003 (ip), vehicle: distilled water + Tween-80): 89 % of control

SMILES: CC(C)(CC(=O)Nc1ccccc1)C(=O)O
- T/C [3]: 98 % of control and 100 % of control
- T/C [5]: 96 % of control and 100 % of control
- T/C [7]: 96 % of control and 102 % of control

SMILES: CCN=C=NCCCN(C)C
- T/C (endpoint: mean survival time, dose: 6.25 mg/kg/injection, schedule: Q01DX009 (ip), vehicle: saline): 105 % of control
- T/C (endpoint: mean survival time, dose: 12.5 mg/kg/injection, schedule: Q01DX009 (ip), vehicle: saline): 110 % of control
- T/C (endpoint: mean survival time, dose: 25.0 mg/kg/injection, schedule: Q01DX009 (ip), vehicle: saline): 100 % of control

SMILES: OCC1OC(n2ncc3c(NCc4ccco4)ncnc32)C(O)C1O (configuration not stated)
- T/C [1]: 95 % of control
- T/C (endpoint: mean survival time, dose: 50.0 mg/kg/injection, schedule: Q01DX009 (ip), vehicle: water): 95 % of control
- T/C (endpoint: mean survival time, dose: 100.0 mg/kg/injection, schedule: Q01DX009 (ip), vehicle: water): 100 % of control
- T/C (endpoint: mean survival time, dose: 200.0 mg/kg/injection, schedule: Q01DX009 (ip), vehicle: water): 104 % of control
- T/C (endpoint: mean survival time, dose: 400.0 mg/kg/injection, schedule: Q01DX009 (ip), vehicle: water): 106 % of control

SMILES: Cc1nc2ccccc2cc1C[N+]12CN3CN(CN(C3)C1)C2
- T/C (endpoint: mean survival time, dose: 25.0 mg/kg/injection, schedule: Q01DX009 (ip), vehicle: saline with Tween-80): 106 % of control
- T/C (endpoint: mean survival time, dose: 25.0 mg/kg/injection, schedule: Q04DX003 (ip), vehicle: saline with Tween-80): 101 % of control
- T/C (endpoint: mean survival time, dose: 50.0 mg/kg/injection, schedule: Q01DX009 (ip), vehicle: saline with Tween-80): 113 % of control
- T/C (endpoint: mean survival time, dose: 50.0 mg/kg/injection, schedule: Q04DX003 (ip), vehicle: saline with Tween-80): 103 % of control
- T/C [8]: 109 % of control

SMILES: Nc1ccc(OCCc2c(N)nc(N)nc2N)cc1
- T/C (endpoint: mean survival time, dose: 100.0 mg/kg/injection, schedule: Q04DX002 (ip), vehicle: Klucel (hydroxypropylcellulose) (HPC)): 98 % of control
- T/C (endpoint: mean survival time, dose: 200.0 mg/kg/injection, schedule: Q04DX002 (ip), vehicle: Klucel (hydroxypropylcellulose) (HPC)): 102 % of control
- T/C (endpoint: mean survival time, dose: 400.0 mg/kg/injection, schedule: Q04DX002 (ip), vehicle: Klucel (hydroxypropylcellulose) (HPC)): 98 % of control

SMILES: O=C1C=C(Nc2ccc([N+](=O)[O-])cc2Cl)c2ccccc2C1=O
- T/C (endpoint: mean survival time, dose: 75.0 mg/kg/injection, schedule: Q01DX001 (ip), vehicle: saline): 100 % of control
- T/C (endpoint: mean survival time, dose: 150.0 mg/kg/injection, schedule: Q01DX001 (ip), vehicle: saline): 101 % of control
- T/C (endpoint: mean survival time, dose: 300.0 mg/kg/injection, schedule: Q01DX001 (ip), vehicle: saline): 112 % of control
